Results published in ChEMBL document CHEMBL4396960, “Optimization of 1,3-disubstituted urea-based inhibitors of Zika virus infection” (Bioorg Med Chem Lett, 2019).

Legend:
Zika virus [1] = assay: Antiviral activity against Zika virus infected in human A549 cells assessed as reduction in viral titer incubated for 48 hrs by plaque assay; type: functional, organism-based; details: A549, 48 h
A549 [2] = assay: Cytotoxicity against human A549 cells assessed as reduction in cell viability at <= 1 uM by MTT assay; type: cell-based
A549 [3] = assay: Cytotoxicity against human A549 cells assessed as reduction in cell viability at > antiviral IC50 by MTT assay; type: cell-based
Zika virus [4] = assay: Potency index, ratio of ASN 07115873 to compound IC50 for Antiviral activity against Zika virus infected in human A549 cells; type: functional

Structure (SMILES) | IC50 (Zika virus [1]) | Activity (A549 [2]) | Activity (A549 [3]) | Ratio IC50 (Zika virus [4])
C=CCNc1nc(NC(=O)Nc2ccc(Cl)cc2)ns1 | 0.0851 nM | Non-Toxic | >= 50% | 2.2
C=CCSc1nnc(NC(=O)Nc2ccc(Cl)cc2)s1 | 0.191 nM | Non-Toxic | >= 50% | 
C=CCSc1nnc(NC(=S)Nc2ccc(Br)cc2C(F)(F)F)s1 | 46.6 nM |  |  | 
C=CCSc1nc(NC(=O)Nc2ccc(Br)cc2)ns1 | 1300 nM | Non-Toxic | >= 50% | 
C=CCSc1nc(NC(=S)Nc2ccc(Cl)cc2)ns1 | 2600 nM | Non-Toxic | >= 50% | 
CCCSc1nnc(NC(=O)Nc2ccc(Cl)c(C(F)(F)F)c2)s1 | 0.149 nM |  |  | 
C=CCNc1nc(NC(=O)Nc2ccc(I)cc2)ns1 | 0.1 nM | Non-Toxic | >= 50% | 
C=CCSc1nsc(NC(=S)Nc2ccc(Cl)c(C(F)(F)F)c2)n1 | 4.9 nM | Non-Toxic | >= 50% | 
O=C(Nc1ccc(Cl)c(C(F)(F)F)c1)Nc1nnc(S)s1 | 0.982 nM |  |  | 
C=CCSc1nsc(NC(=S)Nc2ccc(Cl)cc2)n1 | 493 nM | Non-Toxic | >= 50% | 
C=CCSc1nc(NC(=S)Nc2ccc(Br)cc2)ns1 | 4100 nM | Non-Toxic | >= 50% | 
C#CCSc1nsc(NC(=S)Nc2ccc(Cl)c(C(F)(F)F)c2)n1 | 57.4 nM | Non-Toxic | >= 50% | 
C=CCSc1nnc(NC(=S)Nc2ccc(Cl)c(C(F)(F)F)c2)s1 | 0.0977 nM | Non-Toxic | >= 50% | 
C=CCSc1nsc(NC(=O)Nc2ccc(Cl)cc2)n1 | 0.191 nM | Non-Toxic | >= 50% | 
C#CCSc1nsc(NC(=O)Nc2ccc(Cl)c(C(F)(F)F)c2)n1 | 0.962 nM | Non-Toxic | >= 50% | 
C=CCSc1nc(NC(=S)Nc2ccc(Cl)c(C(F)(F)F)c2)ns1 | 233 nM | Non-Toxic | >= 50% | 
C#CCSc1nsc(NC(=O)Nc2ccc(Br)cc2)n1 | 0.665 nM | Non-Toxic | >= 50% | 
C=CCSc1nnc(NC(=O)Nc2ccc(Br)cc2)s1 | 0.144 nM | Non-Toxic | >= 50% | 
C=CCSc1nsc(NC(=O)Nc2ccc(Cl)c(C(F)(F)F)c2)n1 | 0.423 nM | Non-Toxic | >= 50% | 

Structure (SMILES) | IC50 (Zika virus [1]) | Activity (A549 [2]) | Activity (A549 [3]) | Ratio IC50 (Zika virus [4])
C#CCSc1nsc(NC(=O)Nc2ccc(I)cc2)n1 | 0.809 nM | Non-Toxic | >= 50% | 
C=CCSc1nnc(NC(=S)Nc2ccc(I)cc2)s1 | 0.156 nM | Non-Toxic | >= 50% | 
C=CCSc1nc(NC(=S)Nc2ccc(I)cc2)ns1 | 2700 nM | Non-Toxic | >= 50% | 
C=CCSc1nnc(NC(=O)Nc2ccc(I)cc2)s1 | 0.179 nM | Non-Toxic | >= 50% | 
C=CCSc1nc(NC(=S)Nc2ccc(Br)cc2C(F)(F)F)ns1 | 2900 nM |  |  | 
C=CCSc1nsc(NC(=O)Nc2ccc(I)cc2)n1 | 0.414 nM | Non-Toxic | >= 50% | 
C=CCSc1nnc(NC(=S)Nc2ccc(Br)cc2)s1 | 0.147 nM | Non-Toxic | >= 50% | 
C=CCSc1nnc(NC(=O)Nc2ccc(Br)cc2C(F)(F)F)s1 | 9100 nM |  |  | 
C=CCSc1nnc(NC(=O)Nc2ccc(Cl)c(C(F)(F)F)c2)s1 | 0.111 nM | Non-Toxic | >= 50% | 
C=CCSc1nsc(NC(=S)Nc2ccc(I)cc2)n1 | 2600 nM | Non-Toxic | >= 50% | 
C#CCSc1nsc(NC(=S)Nc2ccc(Br)cc2)n1 | 706 nM | Non-Toxic | >= 50% | 
C=CCSc1nc(NC(=O)Nc2ccc(I)cc2)ns1 | 1200 nM | Non-Toxic | >= 50% | 
C=CCNc1nc(NC(=O)Nc2ccc(Cl)c(C(F)(F)F)c2)ns1 | 0.114 nM | Non-Toxic | >= 50% | 
C=CCSc1nc(NC(=O)Nc2ccc(Cl)c(C(F)(F)F)c2)ns1 | 1000 nM | Non-Toxic | >= 50% | 
C#CCSc1nsc(NC(=O)Nc2ccc(Cl)cc2)n1 | 1.4 nM | Non-Toxic | >= 50% | 
C=CCSc1nsc(NC(=S)Nc2ccc(Br)cc2)n1 | 2100 nM | Non-Toxic | >= 50% | 
C=CCSc1nsc(NC(=O)Nc2ccc(Br)cc2)n1 | 0.329 nM | Non-Toxic | >= 50% | 
C=CCNc1nc(NC(=O)Nc2ccc(Br)cc2)ns1 | 0.0977 nM | Non-Toxic | >= 50% | 
